{
  "source": "patent US10702482B2",
  "about": "“Slow-release solid oral compositions” (GNOSIS SPA, priority 2013, dated 2020)",
  "origin": "cited, not measured here",
  "data": [
    {"smiles": "C[S+](CC[C@H](N)C(=O)O)C[C@H]1O[C@@H](n2cnc3c(N)ncnc32)[C@H](O)[C@@H]1O", "note": "(stereo partly drawn) [SAMe, S-adenosyl-L-methionine]", "values": [
      {"measurement": "oral bioavailability (in words)", "result": "rather poor oral bioavailability"}
    ]}
  ]
}
